Read-outs that look alike come from different tables or passages of the source.
Tests used:
HBX2 HIV integrase [1] = target: T1, HBX2 HIV integrase (Human immunodeficiency virus type 1 group M subtype B, UniProt P04585); experiment: 3' LTR processing assay; type: biochemical
T1 construct: contains the cDNA encoding the HBX2 HIV integrase; His tag (N, cleaved yes); made in house; host or cells: Escherichia coli BL21 (DE3)
Method: (§1) The pET-15b-IN plasmid contains the cDNA encoding the HBX2 HIV integrase. His-tagged integrase protein was overexpressed in Escherichia coli BL21 (DE3) and purified under native conditions. Briefly, at an OD of 0.8, fusion protein expression was induced in bacterial cultures by the addition of IPTG (1 mM). Cultures were incubated for 3 h at 37° C., of ter which cells were centrifuged. The cell pellet was resuspended in ice-cold buffer A [20 mM Ths-HCl (pH 8), 1 M NaCl, 4 mM β-mercaptoethanol, and 5 mM imidazole], treated with lysozyme for 1 h on ice, and sonicated. After centrifugation (30 min at 10 000 rpm), the supernatant was filtered (0.45 μm) and incubated for at least 2 h with Ni-NTA agarose beads (Pharmacia). The beads were washed twice with 10 volumes of buffer A, 10 volumes of buffer A with 50 mM imidazole, and 10 volumes of buffer A with 100 mM imidazole. His-tagged integrase was then eluted with buffer A supplemented with 50 μM ZnSO4 and 1 M imidazole. The integrase concentration was adjusted to 0.1 mg/mL in buffer A. The fusion protein was cleaved using thrombin and dialyzed overnight against 20 mM Ths-HCl (pH 8), 1 M NaCl, and 4 mM (3-mercaptoethanol. After removal of biotinylated thrombin by incubation with streptavidin-agarose magnetic beads (Novagen, Madison, Wis.), a second dialysis was performed for 2 h against 20 mM Ths-HCl (pH 8), 1 M NaCl, 4 mM mercaptoethanol, and 20% (v/v) ethylene glycol. Fractions were aliquoted and rapidly frozen at −80° C.
Oligonucleotides U5B (5′-[…]-3′), U5B-2 (5′-GTGTGGAAAATCTCTAGCA-3′), U5A (5′-[…]-3′) were purchased from Eurogentec (Liege, Belgium) and further purified on an 18% denaturing acrylamide/urea gel. For processing, strand transfer, 100 pmol of U5B, U5B-2, respectively, were radiolabeled using T4 polynucleotide kinase and 50 μCi of [γ-32P]ATP (3000 Ci/mmol). The T4 kinase was heat inactivated, and unincorporated nucleotides were removed using a Sephadex G-10 column (GE Healthcare). NaCl was added to a final concentration of 0.1 M, and complementary unlabeled strand USA was added to either U5B or U5B-2. The mixture was heated to 90° C. for 3 min, and the DNA was annealed by slow cooling.
Processing reaction was performed using U5A-U5B, in buffer containing 20 mM Tris (pH 7.2), 50 mM NaCl, 10 mM DTT, and 10 mM MgCl2. […] The reactions were stopped by phenol/chloroform extraction, and DNA products were precipitated with ethanol. The products were separated in TE containing 7 M urea and electrophoresed on an 18% denaturing acrylamide/urea gel. Gels were analyzed using a STORM Molecular Dynamics phosphorimager and quantified with Image Quant™ 4.1 software.

[2] = tested on: wild type HIV-1 virus (NL 4.3 strains); experiment: Antiviral activity assay on Hela P4 cells (beta-galactosidase, CPRG); type: cell-based; settings: read-out: P4 IC50
Method: The antiviral activity is determined by infecting HelaP4 cells with a wild type HIV-1 virus (NL 4.3 strains at 3 ng) on cells in presence or absence of drugs. A serial dilution of drugs is done to evaluate the EC50. The effective concentration is the concentration of product at which virus replication is inhibited by 50 percent. After 48 hours incubation, the quantification is done by the evaluation of β-Galactosidase produced by the infected Hela P4 cells. The viral activity is evaluated by colorimethc assay, CPRG, followed by plate reading at 570 nm with a reference of 690 nm. The CPRG test is a colorimetric assay which allows to quantity the β-galactosidase produced by HIV-1 infected indicator cells (the β-Gal gene being under the control of the HIV-1 LTR).

[3] = tested on: wild type HIV-1 virus (NL 4.3 strains); experiment: Antiviral activity assay CEM cells (p24 ELISA); type: cell-based; settings: Human immunodeficiency virus 1, CCRF-CEM, read-out: CEM
Method: The activity is determined by infecting CEM cells with a wild type HIV-1 virus (NL 4.3 strains at 3 ng) on cells in presence or absence of drugs. A serial dilution of drugs is done to evaluate the EC50. […] After 48 hours incubation, the quantification is done by the evaluation of the viral protein p24 with a commercial Elisa Kit. P24 is a protein essential to the replication virus cycle. The quantification of this enzyme is proportional to the amount of virus produced by the infected cells.

in vitro = type: cell-based; settings: human
Method: The cytotoxicity of compounds was evaluated using un-infected and infected Hel_a-P4 cell and CEM leukemia cells. CEM cell were obtained from the American Type Tissue Collection (Rockville, Md.).
A serial dilution of drugs is done to evaluate the cytotoxicity concentration and is identified by CC50 (concentration of drug which induces 50% of cytotoxicity)
The HeLa-P4 was cultured in the presence or absence of compounds for 2 days. After this time period, cells were cultivated with MTT for 3 hours, further the medium is removed. And the lysis buffer is incubated for 1 hour, followed by plate reading at 540 nm in a microplate reader.

[4] = Stability in Hepes buffer 0.5 M pH 7.5 (UV spectrophotometry); type: physicochemical; settings: HEPES 0.5 M pH 7.5, 37°, 50 μM (SQE94 and 79 at 25 μM)
Method: 2.1. Hepes Buffer 0.5M, pH 7.5. 16 μl of drug at 25 mM, in 8 ml of Hepes Buffer. Different time points were done, Oh, 2 h, 4 h, 24 h, and 48 h.
Stability of the compounds was performed in HEPES Buffer 0.5 M (pH 7.5) at 37 O, at a concentration of 50 μM. Compounds SQE94 and 79 were tested at a concentration of 25 μM to avoid parasite precipitation phenomena. Typically, stock solutions of compounds in DMSO (25 mM) were diluted in HEPES Buffer. Dilutions were stored at 37° C., protected from light. Sampling was done at different time points. Samples were analyzed on an UV-spectrophotometer using a wavelength scan between 200 and 700 nm. Superposition of UV-spectra gives the qualitative aspect of the stability of the drug. Based on the Beer-Lambert law, percentage of degradation of the drug over time was calculated, when placed at the maximum absorption wavelength.

[5] = Stability by HPLC in PEG400 and Vitamine E-TPGS/PEG 400 mixtures; type: physicochemical
Method: The second stability assay consists in the assessment according to standard HPLC analysis protocols over 24 hrs in PEG400 and Vitamine E-TPGS/PEG 400 mixtures, by focusing on the evolution of the concentration and peak purity of the compound. Compounds were dissolved in appropriate amounts of solvent and let under stirring protected from light for 24 hrs. Aliquots were transferred into eppendorfs and centrifuged at 10 000 g for 10 min. Supernatants were collected and appropriately diluted in DMSO/mobile phase mixtures before HPLC analysis. The Waters HPLC analysis system equipped with an ultraviolet detector and a Waters Symmetry Shield C18 column of 2.1 mm×50 mm ([…]) was used. A mobile phase of water/acetic acid 0.1% (Solvant A): Acetonitrile/acetic acid 0.1% (solvent B) mixture or a water/trifluoroacetic acid 0.1% (Solvant A): Acetonitrile/trifluoroacetic acid 0.1% (solvent B) mixture in the case of compound FZ41 was pumped according to a binary gradient described below, at a flow rate of 0.4 ml/min.

[6] = Chemical stability at pH between 1 and 7; type: physicochemical
[7] = Solubility of compound SQE94 in pH-buffers; type: physicochemical; settings: compound alone, room temperature, 24 h
Method: Solubility of compound SQE94 was determined in pH-buffers at pH values of 5, 6 and 7. 10 mg of SQE94 are added to 10 ml of each pH-buffer. Each solution is stirred at room temperature, away from light, for 24 h, then centrifugated. The amount of dissolved compound is determined by HPLC analysis.

HBX2 HIV integrase [8] = target: T1, HBX2 HIV integrase; experiment: Strand transfer assay; type: biochemical
Method: as §1, with “The integrase concentration was adjusted to 0.1 mg/mL in buffer A. The fusion protein was cleaved using thrombin and dialyzed overnight against 20 mM Ths-HCl (pH 8), 1 M NaCl, and 4 mM (3-mercaptoethanol. After removal of biotinylated thrombin by incubation with streptavidin-agarose magnetic beads (Novagen, Madison, Wis.), a second dialysis was performed for 2 h against 20 mM Ths-HCl (pH 8), 1 M NaCl, 4 mM mercaptoethanol, and 20% (v/v) ethylene glycol. Fractions were aliquoted and rapidly frozen at −80° C.” left out
Processing, strand transfer reactions were performed using U5A-U5B-2, in buffer containing 20 mM Tris (pH 7.2), 50 mM NaCl, 10 mM DTT, 1 OmM MgCl2. […] Gels were analyzed using a STORM Molecular Dynamics phosphorimager and quantified with Image Quant™ 4.1 software.

[9] = Human immunodeficiency virus 1, HeLaP4, HeLa P4 cells, HIV-1 NL 4.3, 48 hours
[10] = CEM cells, HIV-1 NL 4.3, 48 hours, p24
[11] = Human immunodeficiency virus 1, HeLaP4, 48 h

Structure (SMILES)	IC50 (HBX2 HIV integrase [1]) [nM]	IC50 [2, 9] [nM]	EC50 [3, 10] [nM]	IC50 at 2 days (in vitro) [nM]	% of degradation ([4]; 2 hrs) [%]	% of degradation ([4]; 4 hrs) [%]	% of degradation ([4]; 24 hrs) [%]	degradation ([5]; over 24 hrs at room temperature in several mixtures of excipients)	chemical profile stability ([6]; over 24 hrs at pH between 1 and 7)	Dissolved compound SQE94 ([7]; pH5 buffer) [µg/mL]	Dissolved compound SQE94 ([7]; pH6 buffer) [µg/mL]	Dissolved compound SQE94 ([7]; pH7 buffer) [µg/mL]	IC50 [2, 11] [nM]	melting point [°C]	EC50 ([3]; 48 h) [nM]	IC50 (HBX2 HIV integrase [8]) [nM]	degradation ([5]; within only 3 hrs, mixtures of excipients)	degradation rate ([6]; within less than 24 hrs, pH between 1 and 7)
CC(=O)c1ccc(O)c2nc(/C=C/c3cc(O)c(O)cc3O)ccc12 [SQE74, 1-{2-[2(E)-(2,4,5-thhydroxyphenyl)-vinyl]-8-hydroxy-quinolin-5-yl}-ethanone]	225	11800	350	11700	17.2	26.1	24.1											
CC(=O)c1ccc(O)c2nc(/C=C/c3ccc(C(=O)O)cc3[N+](=O)[O-])ccc12 [SQE96, 4-[2(E)-(5-Acetyl-8-hydroxy-quinolin-2-yl)-vinyl]-5-nitro-benzoic acid]	2300	40000		> 100000	<5	<5	<5											
COc1cc(/C=C/c2ccc3c(C(C)=O)ccc(O)c3n2)cc([N+](=O)[O-])c1O [SQE94, 1-{2-[2(E)-(3-nitro, 4-hydroxy, 5-methoxyphenyl)-vinyl]-8-hydroxy-quinolin-5-yl}-ethanone]	724	1600		56000	<5	8.2	30.8	less than 10%	very stable chemical profiles	1.4	1.4	5.5						
CC(=O)c1ccc(O)c2nc(/C=C/c3cc(O)c(O)c([N+](=O)[O-])c3)ccc12 [SQE79, 1-{2-[2(E)-(3,4-dihydroxy, 5-nitrophenyl)-vinyl]-8-hydroxy-quinolin-5-yl}-ethanone]	225	4600	400	4200	19.2	26.9	42.9											
CC(=O)c1ccc(O)c2nc(/C=C/c3ccc(O)c(C(=O)O)c3)ccc12 [SQE89, (E)-5-(2-(5-acetyl-8-hydroxyquinolin-2-yl)vinyl)-2-hydroxybenzoic acid]	560			12600	<5	<5	<5						1000	266 to 268				
CC(=O)c1ccc(O)c2nc(/C=C/c3cc(O)c(O)c(Cl)c3)ccc12 [SQE86, (E)-1-(2-(3-chloro-4,5-dihydroxystyryl)-8-hydroxyquinolin-5-yl)ethanone]	530			15000	12.1	12.5	22.4						1000	256 to 258	500			
COc1cc(/C=C/c2ccc3ccc(C(=O)O)c(O)c3n2)cc(O)c1O [FZ41, reference compound]	700	5000	25000	> 100000	31.1	59.6	64.6									1700	at least 10%	50-60%
CC(=O)c1ccc(O)c2nc(/C=C/c3cc(O)c(O)c(O)c3)ccc12 [SQE75, 1-{2-[2(E)-(3,4,5-thhydroxyphenyl)-vinyl]-8-hydroxy-quinolin-5-yl}-ethanone]	510	9600	24700	> 100000	15.7	17.5	18.7											
